Patent publication US9113629B2, “4-amino-6-(4-substituted-phenyl)-picolinates and 6-amino-2-(4-substituted-phenyl)-pyrimidine-4-carboxylates and their use as herbicides” (DOW AGROSCIENCES LLC, priority 2013, dated 2015)
Like-named read-outs stand apart in the source and are kept apart here.

Tests used:
[1] = tested on: Key Grass and Sedge Weeds as well as Grass Crops; assay: Post-emergent Test II herbicidal activity (Table 6); type: in vivo; settings: post-emergence, 336 h; for pest or weed control at 70 g/ha: 70 g ai/ha; for pest or weed control at 140 g/ha: 140 g ai/ha
How it was run: (§1)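 Visual injury ratings (0 = no injury, 100 = complete kill) were taken 14 d after treatment, relative to untreated plants. Seedlings at the first–second true leaf stage received overhead spray at 187 L/ha; the highest rate was serially diluted to ½×, ¼×, ⅛× and 1/16×.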

[2] = tested on: Key Broadleaf Weed and Crop Species; assay: Post-emergent Test II herbicidal activity (Table 5); type: in vivo; settings: post-emergence, 336 h, 14 days after application; for pest or weed control at 70 g/ha: application rate 70 g ai/ha; for pest or weed control at 140 g/ha: application rate 140 g ai/ha
How it was run: as §1

[3] = CYPES: yellow nutsedge (Cyperus esculentus), read-out: Visual Growth Reduction (%) 14 Days After Application, CYPES
[4] = DIGSA: crabgrass (Digitaria sanguinalis), read-out: Visual Growth Reduction (%) 14 Days After Application, DIGSA
[5] = ECHCG: barnyardgrass (Echinochloa crus-galli), read-out: Visual Growth Reduction (%) 14 Days After Application, ECHCG
[6] = ORYSA: rice (Oryza sativa), crop, read-out: Visual Growth Reduction (%) 14 Days After Application, ORYSA
[7] = SETFA: giant foxtail (Setaria faberi), read-out: Visual Growth Reduction (%) 14 Days After Application, SETFA
[8] = SORVU: grain sorghum (Sorghum vulgare), read-out: Visual Growth Reduction (%) 14 Days After Application, SORVU
[9] = TRZSS (wheat, Triticum aestivum), crop, read-out: Visual Growth Reduction (%) 14 Days After Application, TRZSS
[10] = ZEAMX: maize, corn (Zea mays), crop, read-out: Visual Growth Reduction (%) 14 Days After Application, ZEAMX
[11] = ABUTH: velvetleaf (Abutilon theophrasti), read-out: Visual Growth Reduction (%) 14 Days After Application, ABUTH
[12] = BRSNN: oilseed-rape, canola (Brassica napus), read-out: Visual Growth Reduction (%) 14 Days After Application, BRSNN
[13] = CHEAL: lambsquarters (Chenopodium album), read-out: Visual Growth Reduction (%) 14 Days After Application, CHEAL
[14] = EPHHL: wild poinsettia (Euphorbia heterophylla), read-out: Visual Growth Reduction (%) 14 Days After Application, EPHHL
[15] = HELAN: sunflower (Helianthus annuus), read-out: Visual Growth Reduction (%) 14 Days After Application, HELAN
[16] = VIOTR: wild pansy (Viola tricolor), read-out: Visual Growth Reduction (%) 14 Days After Application, VIOTR

## COC(=O)c1nc(-c2ccc(C#N)cc2F)cc(N)c1Cl [Compound 16]
[1]; [3]
  pest or weed control at 70 g/ha: 95 to 100%
  pest or weed control at 140 g/ha: 95 to 100%
[1]; [4]
  pest or weed control at 70 g/ha: 60 to 74%
  pest or weed control at 140 g/ha: 75 to 84%
[1]; [5]
  pest or weed control at 70 g/ha: 75 to 84%
  pest or weed control at 140 g/ha: 95 to 100%
[1]; [6]
  pest or weed control at 70 g/ha: 0 to 29%
  pest or weed control at 140 g/ha: 0 to 29%
[1]; [7]
  pest or weed control at 70 g/ha: 45 to 59%
  pest or weed control at 140 g/ha: 60 to 74%
[1]; [8]
  pest or weed control at 70 g/ha: 60 to 74%
  pest or weed control at 140 g/ha: 60 to 74%
[1]; [9]
  pest or weed control at 70 g/ha: 30 to 44%
  pest or weed control at 140 g/ha: 45 to 59%
[1]; [10]
  pest or weed control at 70 g/ha: 85 to 94%
  pest or weed control at 140 g/ha: 85 to 94%
[2]; [11]
  pest or weed control at 70 g/ha: 85 to 94%
  pest or weed control at 140 g/ha: 95 to 100%
[2]; AMARE: redroot pigweed (Amaranthus retroflexus), read-out: Visual Growth Reduction (%) 14 Days After Application, AMARE
  pest or weed control at 140 g/ha: 95 to 100%
[2]; [12]
  pest or weed control at 70 g/ha: 0 to 29%
  pest or weed control at 140 g/ha: 0 to 29%
[2]; [13]
  pest or weed control at 70 g/ha: 95 to 100%
  pest or weed control at 140 g/ha: 95 to 100%
[2]; [14]
  pest or weed control at 70 g/ha: 95 to 100%
  pest or weed control at 140 g/ha: 95 to 100%
[2]; [15]
  pest or weed control at 70 g/ha: 95 to 100%
  pest or weed control at 140 g/ha: 95 to 100%
[2]; [16]
  pest or weed control at 70 g/ha: 30 to 44%
  pest or weed control at 140 g/ha: 30 to 44%
